Values joined by “and” are separate entries in the source; they are usually repeats but may differ in a detail not shown here. Equal entries are not always repeated.
Tests used:
Zika virus = assay: Functional CPE-based assay to measure dose dependent changes in antiviral-drug inhibitory efficacy against Zika virus MR766 in Vero E6 miRFP670 cells (cotreated with P-gp inhibitor, CP100356). Cells are treated with antiviral candidates that are serially diluted. EC50 is reported via analysis of MTS assay as a readout of CPE. The assay has been performed by KU Leuven.; type: organism-based, Chlorocebus sabaeus, Vero C1008; details: for EC90: P-gp concentration 500 nM, P-gp inhibitor CP100356
dengue virus type 2 = assay: Functional assay to measure dose dependent changes in antiviral-drug inhibitory efficacy against Dengue virus type 2 New Guinea C in Vero E6 miRFP670 cells (cotreated with P-gp inhibitor, CP100356). Cells are treated with antiviral candidates that are serially diluted, following infection, cells are fixed. EC50 is reported via analysis of fluorescence intensity using high-content imager. The …; type: organism-based, Chlorocebus sabaeus, Vero C1008; details: for EC90: P-gp concentration 500 nM, P-gp inhibitor CP100356

O=C(NCC(F)F)[C@H](Nc1ccc2c(c1)CNC2)c1cc(F)cc2[nH]ncc12
EC50 (Zika virus; Zika virus, Vero C1008): 17.9 µM
EC90 (Zika virus; Zika virus, Vero C1008, Baseline response 0 %, Hill slope 1.433, Maximum measured 86.437 %, Maximum response 100 %, Minimum measured 5.781 %, R squared 0.963): > 50 µM
EC50 (dengue virus type 2; Dengue virus, Vero C1008): > 50 µM
EC90 (dengue virus type 2; Dengue virus, Vero C1008, Maximum measured 213.694 %, Minimum measured 101.734 %): > 50 µM

O=C(Nc1ccc2c(c1)CNC2)c1cc(F)cc2nn(-c3ccccn3)nc12
EC90 (Zika virus; Baseline response 0 %, Hill slope 0.342, Maximum measured 8.101 %, Maximum response 100 %, Minimum measured -1.287 %, R squared 0.284): > 50 µM
EC90 (Zika virus; Baseline response 0 %, Hill slope -0.391, Maximum measured 8.995 %, Maximum response 100 %, Minimum measured 1.943 %, R squared 0.39): > 3.12 µM
EC50 (Zika virus; vero c1008): > 50 µM
EC90 (dengue virus type 2; Baseline response 0 %, EC90 CI (lower) 0.77 uM, EC90 CI (upper) 2.483 uM, Hill slope -4.828, Maximum measured 102.327 %, Maximum response 100 %, Minimum measured 2.546 %, R squared 0.795): 3.44 µM
EC90 (dengue virus type 2; Dengue virus, Vero C1008, Baseline response 0 %, EC90 CI (lower) 0.427 uM, EC90 CI (upper) 5.546 uM, Hill slope -1.321, Maximum measured 90.171 %, Maximum response 100 %, Minimum measured 71.834 %, R squared 0.697): > 6.25 µM
EC50 (dengue virus type 2; vero c1008): > 6.25 µM and 2.18 µM

O=C(Nc1ccc2c(c1)CNC2)c1cc(Cl)cc2[nH]c(-c3cc(C4CC4)[nH]n3)nc12
EC50 (Zika virus; Zika virus, Vero C1008): > 0.781 µM
EC90 (Zika virus; Zika virus, Vero C1008, Baseline response 0 %, Hill slope 2.134, Maximum measured 7.792 %, Maximum response 100 %, Minimum measured 1.889 %, R squared 0.797): > 0.781 µM
EC50 (dengue virus type 2; Dengue virus, Vero C1008): > 3.12 µM
EC90 (dengue virus type 2; Dengue virus, Vero C1008, Maximum measured 213.616 %, Minimum measured 78.099 %): > 3.12 µM

N[C@H]1Cc2ccc(NC(=O)c3cccc4c3CC(=O)N4)cc2C1
EC50 (Zika virus; Zika virus, Vero C1008): > 50 µM
EC90 (Zika virus; Zika virus, Vero C1008, Maximum measured 1.094 %, Minimum measured -1.183 %): > 50 µM
EC50 (dengue virus type 2; Dengue virus, Vero C1008): > 50 µM
EC90 (dengue virus type 2; Dengue virus, Vero C1008, Maximum measured 137.168 %, Minimum measured 87.065 %): > 50 µM

O=C(Nc1ccc2c(c1)CNC2)c1cc(Cl)cc2c1cnn2C[C@H]1CCCO1
EC50 (Zika virus; Zika virus, Vero C1008): 6.36 µM
EC90 (Zika virus; Zika virus, Vero C1008, Baseline response 0 %, Hill slope 36.566, Maximum measured 122.907 %, Maximum response 100 %, Minimum measured 2.24 %, R squared 0.938): 6.75 µM
EC50 (dengue virus type 2; Dengue virus, Vero C1008): > 50 µM
EC90 (dengue virus type 2; Dengue virus, Vero C1008, Baseline response 0 %, Hill slope 0.931, Maximum measured 200.765 %, Maximum response 100 %, Minimum measured 63.333 %, R squared 0.208): > 50 µM

Cc1ncc(-c2cc(F)cc(C(=O)Nc3ccc4c(c3)CNC4)c2)s1
EC50 (Zika virus; Zika virus, Vero C1008): 3.77 µM
EC90 (Zika virus; Zika virus, Vero C1008, Baseline response 0 %, EC90 CI (lower) 3.392 uM, EC90 CI (upper) 11.052 uM, Hill slope 4.52, Maximum measured 126.226 %, Maximum response 100 %, Minimum measured 6.868 %, R squared 0.912): 6.12 µM
EC50 (dengue virus type 2; Dengue virus, Vero C1008): > 25 µM
EC90 (dengue virus type 2; Dengue virus, Vero C1008, Maximum measured 125.186 %, Minimum measured 53.808 %): > 25 µM

CC(C)CNC(=O)[C@H](Nc1ccc2c(c1)CNC2)c1cc(Cl)cc2[nH]ncc12
EC50 (Zika virus; Zika virus, Vero C1008): 14.2 µM
EC90 (Zika virus; Zika virus, Vero C1008, Baseline response 0 %, EC90 CI (lower) 23.751 uM, EC90 CI (upper) 85.548 uM, Hill slope 1.9, Maximum measured 81.211 %, Maximum response 100 %, Minimum measured -3.072 %, R squared 0.886): 45.1 µM
EC50 (dengue virus type 2; Dengue virus, Vero C1008): > 50 µM
EC90 (dengue virus type 2; Dengue virus, Vero C1008, Maximum measured 133.558 %, Minimum measured 96.187 %): > 50 µM

O=C(Nc1ccc2c(c1)CNC2)c1cc(F)cc(-c2cn[nH]c2)c1
EC50 (Zika virus; Zika virus, Vero C1008): > 50 µM
EC90 (Zika virus; Zika virus, Vero C1008, Baseline response 0 %, Hill slope 1.1, Maximum measured 49.9 %, Maximum response 100 %, Minimum measured 5.357 %, R squared 0.912): > 50 µM
EC50 (dengue virus type 2; Dengue virus, Vero C1008): 1.11 µM
EC90 (dengue virus type 2; Dengue virus, Vero C1008, Baseline response 0 %, EC90 CI (lower) 0.042 uM, EC90 CI (upper) 0.221 uM, Hill slope -0.898, Maximum measured 65.167 %, Maximum response 100 %, Minimum measured 5.409 %, R squared 0.901): 12.8 µM

Cc1ncc(-c2cc(F)cc(C(=O)Nc3ccc4c(c3)CNC4)c2)o1
EC50 (Zika virus; Zika virus, Vero C1008): > 6.25 µM
EC90 (Zika virus; Zika virus, Vero C1008, Baseline response 0 %, Hill slope 1.881, Maximum measured 43.228 %, Maximum response 100 %, Minimum measured 5.06 %, R squared 0.9): > 6.25 µM
EC50 (dengue virus type 2; Dengue virus, Vero C1008): 16.5 µM
EC90 (dengue virus type 2; Dengue virus, Vero C1008, Baseline response 0 %, Hill slope -0.224, Maximum measured 78.762 %, Maximum response 100 %, Minimum measured 32.755 %, R squared 0.24): > 50 µM

O=C(O)Cc1c[nH]c2cc(-c3cc(Cl)cc(NC(=O)OCc4ccccc4)c3)ccc12
EC50 (Zika virus; Zika virus, Vero C1008): > 50 µM
EC90 (Zika virus; Zika virus, Vero C1008, Baseline response 0 %, Hill slope 0.295, Maximum measured 15.391 %, Maximum response 100 %, Minimum measured 1.73 %, R squared 0.19): > 50 µM
EC50 (dengue virus type 2; Dengue virus, Vero C1008): 28.1 µM
EC90 (dengue virus type 2; Dengue virus, Vero C1008, Baseline response 0 %, Hill slope -3.369, Maximum measured 96.537 %, Maximum response 100 %, Minimum measured 12.115 %, R squared 0.802): > 50 µM

O=C(NCCCn1ccnc1)[C@H](Nc1ccc2c(c1)CNC2)c1cc(Cl)cc(C2CC2)c1
EC50 (Zika virus; Zika virus, Vero C1008): > 50 µM
EC90 (Zika virus; Zika virus, Vero C1008, Maximum measured 4.008 %, Minimum measured -17.269 %): > 50 µM
EC50 (dengue virus type 2; Dengue virus, Vero C1008): > 50 µM
EC90 (dengue virus type 2; Dengue virus, Vero C1008, Baseline response 0 %, Hill slope 0.691, Maximum measured 120.843 %, Maximum response 100 %, Minimum measured 86.475 %, R squared 0.179): > 50 µM

O=C(Nc1cnc2c(c1)CNC2)c1cc(F)cc2[nH]ncc12
EC50 (Zika virus; Zika virus, Vero C1008): > 50 µM
EC90 (Zika virus; Zika virus, Vero C1008, Baseline response 0 %, Hill slope 2.313, Maximum measured 10.311 %, Maximum response 100 %, Minimum measured -0.319 %, R squared 0.353): > 50 µM
EC50 (dengue virus type 2; Dengue virus, Vero C1008): > 50 µM
EC90 (dengue virus type 2; Dengue virus, Vero C1008, Maximum measured 142.482 %, Minimum measured 85.178 %): > 50 µM

O=C(Nc1ccc2c(c1)CNC2)c1cccc2cn[nH]c12
EC50 (Zika virus; Zika virus, Vero C1008): > 50 µM
EC90 (Zika virus; Zika virus, Vero C1008, Baseline response 0 %, Hill slope 0.311, Maximum measured 17.727 %, Maximum response 100 %, Minimum measured -4.778 %, R squared 0.076): > 50 µM
EC50 (dengue virus type 2; Dengue virus, Vero C1008): 46.1 µM
EC90 (dengue virus type 2; Dengue virus, Vero C1008, Baseline response 0 %, Hill slope -1.364, Maximum measured 96.577 %, Maximum response 100 %, Minimum measured 45.147 %, R squared 0.579): > 50 µM

O=C(Nc1ccc2c(c1)CNC2)c1cccc2c1[C@]1(CCNC1)C(=O)N2
EC50 (Zika virus; Zika virus, Vero C1008): > 50 µM
EC90 (Zika virus; Zika virus, Vero C1008, Baseline response 0 %, Hill slope 1.1, Maximum measured 3.95 %, Maximum response 100 %, Minimum measured -2.689 %, R squared 0.205): > 50 µM
EC50 (dengue virus type 2; Dengue virus, Vero C1008): > 12.5 µM
EC90 (dengue virus type 2; Dengue virus, Vero C1008, Maximum measured 172.695 %, Minimum measured 97.519 %): > 12.5 µM

O=C(Nc1ccc2c(c1)CNC2)c1cc(F)cc2c1CCC2
EC50 (Zika virus; Zika virus, Vero C1008): 1.81 µM
EC90 (Zika virus; Zika virus, Vero C1008, Baseline response 0 %, EC90 CI (lower) 1.329 uM, EC90 CI (upper) 15.086 uM, Hill slope 2.425, Maximum measured 145.547 %, Maximum response 100 %, Minimum measured 22.113 %, R squared 0.732): 4.48 µM
EC50 (dengue virus type 2; Dengue virus, Vero C1008): > 6.25 µM
EC90 (dengue virus type 2; Dengue virus, Vero C1008, Baseline response 0 %, Hill slope -2.434, Maximum measured 106.021 %, Maximum response 100 %, Minimum measured 60.209 %, R squared 0.87): > 6.25 µM

COc1cccc(-c2nc3c(C(=O)Nc4ccc5c(c4)CNC5)cc(F)cc3[nH]2)c1
EC50 (Zika virus; Zika virus, Vero C1008): > 50 µM
EC90 (Zika virus; Zika virus, Vero C1008, Baseline response 0 %, Hill slope -1.02, Maximum measured 11.362 %, Maximum response 100 %, Minimum measured -3.329 %, R squared 0.203): > 50 µM
EC50 (dengue virus type 2; Dengue virus, Vero C1008): > 50 µM
EC90 (dengue virus type 2; Dengue virus, Vero C1008, Maximum measured 205.039 %, Minimum measured 143.371 %): > 50 µM

NCc1ccc(-c2csc3cc(C(=O)Nc4ccc5c(c4)CNC5)ccc23)cc1
EC50 (Zika virus; Zika virus, Vero C1008): > 50 µM
EC90 (Zika virus; Zika virus, Vero C1008, Maximum measured 6.518 %, Minimum measured 2.745 %): > 50 µM
EC50 (dengue virus type 2; Dengue virus, Vero C1008): > 6.25 µM
EC90 (dengue virus type 2; Dengue virus, Vero C1008, Baseline response 0 %, Hill slope -0.794, Maximum measured 120.176 %, Maximum response 100 %, Minimum measured 78.099 %, R squared 0.152): > 6.25 µM

CC1=C(c2cc(NC(=O)c3cc(Cl)cc4[nH]ncc34)cc3c2CNC3)CCC1=O
EC50 (Zika virus; Zika virus, Vero C1008): > 50 µM
EC90 (Zika virus; Zika virus, Vero C1008, Baseline response 0 %, Hill slope 0.456, Maximum measured 3.948 %, Maximum response 100 %, Minimum measured -0.924 %, R squared 0.076): > 50 µM
EC50 (dengue virus type 2; Dengue virus, Vero C1008): > 50 µM
EC90 (dengue virus type 2; Dengue virus, Vero C1008, Maximum measured 165.308 %, Minimum measured 53.221 %): > 50 µM

Cc1ccc(-c2nc3c(C(=O)Nc4ccc5c(c4)CNC5)cc(F)cc3[nH]2)cc1
EC50 (Zika virus; Zika virus, Vero C1008): > 50 µM
EC90 (Zika virus; Zika virus, Vero C1008, Baseline response 0 %, Hill slope 1.828, Maximum measured 11.314 %, Maximum response 100 %, Minimum measured -7.525 %, R squared 0.394): > 50 µM
EC50 (dengue virus type 2; Dengue virus, Vero C1008): > 50 µM
EC90 (dengue virus type 2; Dengue virus, Vero C1008, Baseline response 0 %, Hill slope -1.93, Maximum measured 263.734 %, Maximum response 225.04 %, Minimum measured 80.528 %, R squared 0.789): > 50 µM

From ChEMBL document CHEMBL5661943, “ASAP - In vitro antiviral effect” (2024)
